The source of these data is patent EP0345251B1 (priority 1986, dated 1988).

For one series, the system named is leukaemia L1210. The series can be described thus: Antitumour activity against leukaemia L1210 (survival). It counts as in vivo, BDF₁ mice. Also noted: MST: unit not given here. The settings on record: L1210 s.c., i.p. days 1, 2, 3; for MST: median survival time; for T/C: treated/control. Here is the method:
Antitumour effects. Male Swiss Schneider mice of 27g body weight were used for the sarcoma S180 experiments: female C₅₇Bl mice of 20g body weight were used for the B16 melanoma experiments; […]; and C₅₇Bl mice of 20g body weight were used for the Lewis lung experiments.
L1210. Spleens were removed from animals 7 days after inoculation of L1210 cells and these spleens were finely minced with 1:100 isotonic saline. 0.1 ml of this spleen and leukaemia L1210 cell suspension was then injected subcutaneously into the flank of each BDF₁.

For series [1], the system named is Lewis lung carcinoma (3LL). The series can be described thus: Lewis lung carcinoma (3LL): primary tumour and lung secondaries. The series is classed as in vivo, C₅₇Bl mice. The note with it: C57Bl mice, 3LL s.c., 8/group; ADR 3 mg/kg i.p. days 6-10; in combination CRN 200 mg/kg. As for the experimental part:
Antitumour effects. Male Swiss Schneider mice of 27g body weight were used for the sarcoma S180 experiments: female C₅₇Bl mice of 20g body weight were used for the B16 melanoma experiments; male BDF₁ mice of 30g body weight were used for the L1210 leukaemia experiments; and C₅₇Bl mice of 20g body weight were used for the Lewis lung experiments.
Lewis lung (3LL). This tumour was prepared for inoculation in a manner identical to that used for the S180 sarcoma.
This tumour metastasizes to the lungs when implanted into the flanks of mice. […]

As for `COc1cccc2c1C(=O)c1c(O)c3c(c(O)c1C2=O)C[C@@](O)(C(=O)CO)C[C@@H]3O[C@H]1C[C@H](N)[C@H](O)[C@H](C)O1` [ADR, adriamycin], the “DEATHS L1210” value amounted to 8 in the series on leukaemia L1210 (Table 11: BDF ♀ 20g, 8/group, ADR 4.0 mg/kg, in combination CRON 200); 8 in the series on leukaemia L1210 (Table 11: BDF ♀ 20g, 8/group, ADR 6.0 mg/kg, in combination CRON 200); 8 in the series with leukaemia L1210 (Table 11: BDF ♀ 20g, 8/group, ADR 8.0 mg/kg, in combination CRON 200); 1 with leukaemia L1210 (Table 12: BDF ♂ 35g (6/12 old), 8/group, ADR 6.0 mg/kg). Further, the “DEATHS TOXICITY” value is listed as 7 in the series with leukaemia L1210 (Table 12: BDF ♂ 35g (6/12 old), 8/group, ADR 6.0 mg/kg, in combination CRON 200); 8 in the series with leukaemia L1210 (Table 12: BDF ♂ 35g (6/12 old), 8/group, ADR 8.0 mg/kg, in combination CRON 200); 8 in the series with leukaemia L1210 (Table 12: BDF ♂ 35g (6/12 old), 8/group, ADR 10.0 mg/kg, in combination CRON (dose not given)); 7 with leukaemia L1210 (Table 13: BDF ♀ 25g (2-3/12 old), 7/group, ADR 10.0 mg/kg, in combination CRON 200); 7 with leukaemia L1210 (Table 13: BDF ♀ 25g (2-3/12 old), 7/group, ADR 12.5 mg/kg, in combination CRON 200); 7 in the series with leukaemia L1210 (Table 13: BDF ♀ 25g (2-3/12 old), 7/group, ADR 15.0 mg/kg, in combination CRON (dose not given)). In addition, the COMMENTS entry is on record as “Toxic” in the series with leukaemia L1210 (Table 12: BDF ♂ 35g (6/12 old), ADR 8.0 mg/kg); “) Toxic” with leukaemia L1210 (Table 12: BDF ♂ 35g (6/12 old), ADR 10.0 mg/kg, bracket spans ADR and ADR/CRON lines); “} Toxic” with leukaemia L1210 (Table 13: BDF ♀ 25g (2-3/12 old), ADR 12.5 mg/kg, bracket spans ADR and ADR/CRON lines); “} Toxic” in the series with leukaemia L1210 (Table 13: BDF ♀ 25g (2-3/12 old), ADR 15.0 mg/kg, bracket spans ADR and ADR/CRON lines). In addition, the MST with leukaemia L1210 (Table 11: BDF ♀ 20g, ADR 4.0 mg/kg, in combination CRON 200, control 6.8) is reported as 10.8; in the series with leukaemia L1210 (Table 11: BDF ♀ 20g, ADR 6.0 mg/kg, in combination CRON 200, control 6.8), 9.7; in the series with leukaemia L1210 (Table 11: BDF ♀ 20g, ADR 8.0 mg/kg, in combination CRON 200, control 6.8) it was 11.8; in the series on leukaemia L1210 (Table 12: BDF ♂ 35g (6/12 old), ADR 6.0 mg/kg, in combination CRON 200, control 7.0) it was 9.38; with leukaemia L1210 (Table 12: BDF ♂ 35g (6/12 old), ADR 8.0 mg/kg, in combination CRON 200, control 7.0), 5.8; in the series with leukaemia L1210 (Table 12: BDF ♂ 35g (6/12 old), ADR 10.0 mg/kg, in combination CRON (dose not given), control 7.0), 5.5. The MST in the series on leukaemia L1210 (Table 13: BDF ♀ 25g (2-3/12 old), ADR 10.0 mg/kg, in combination CRON 200, control 10.6) was 10.3; in the series on leukaemia L1210 (Table 13: BDF ♀ 25g (2-3/12 old), ADR 12.5 mg/kg, in combination CRON 200, control 10.6) it was 5.4; in the series with leukaemia L1210 (Table 13: BDF ♀ 25g (2-3/12 old), ADR 15.0 mg/kg, in combination CRON (dose not given), control 10.6) it was 5.1. The T/C in the series with leukaemia L1210 (Table 11: BDF ♀ 20g, ADR 4.0 mg/kg, in combination CRON 200) is 159; in the series with leukaemia L1210 (Table 11: BDF ♀ 20g, ADR 6.0 mg/kg, in combination CRON 200), 135; in the series with leukaemia L1210 (Table 11: BDF ♀ 20g, ADR 8.0 mg/kg, in combination CRON 200), 174; in the series with leukaemia L1210 (Table 12: BDF ♂ 35g (6/12 old), ADR 6.0 mg/kg, in combination CRON 200), 134; with leukaemia L1210 (Table 12: BDF ♂ 35g (6/12 old), ADR 8.0 mg/kg, in combination CRON 200), 83; in the series with leukaemia L1210 (Table 12: BDF ♂ 35g (6/12 old), ADR 10.0 mg/kg, in combination CRON (dose not given)), 79. Also, the T/C in the series on leukaemia L1210 (Table 13: BDF ♀ 25g (2-3/12 old), ADR 10.0 mg/kg, in combination CRON 200) was determined as 97; with leukaemia L1210 (Table 13: BDF ♀ 25g (2-3/12 old), ADR 12.5 mg/kg, in combination CRON 200), 51; in the series on leukaemia L1210 (Table 13: BDF ♀ 25g (2-3/12 old), ADR 15.0 mg/kg, in combination CRON (dose not given)), 48. In addition, the “COMMENTS (survival)” value in series [1] was “All ADR alone animals dead by d17”.

With `CO[C@@]12[C@H](COC(N)=O)C3=C(C(=O)C(C)=C(N)C3=O)N1C[C@@H]1N[C@@H]12` [MMC, Mitomycin C], in the series with leukaemia L1210 (Table 15: BDF mice, 8/group, MMC 5 mg/kg, in combination CRN 200 mg/kg), the “SURVIVORS 14d” value came out at 1. Further, the MST with leukaemia L1210 (Table 15: BDF mice, MMC 5 mg/kg, in combination CRN 200 mg/kg, control 7.1) was 7.0.
